For test [1], the system named is lime enzyme preparation. As to the kind of experiment: Effects of common enzyme cofactors on the lime enzyme. As to conditions: 1 mM final concentration. Format: biochemical, Citrus aurantifolia. As for the experimental part: (§1) For the orange enzyme preparation, however, 1mM ATP inhibited the activity by almost 50%.
Test [2] deals with orange enzyme preparation. Put plainly: Effects of common enzyme cofactors on the orange enzyme. The format is biochemical, Citrus sinensis. The settings on record: 1mM. On the procedure: as §1
Test [3] has as its system lime enzyme preparation. Put plainly: Effect of common blood components on the lime enzyme reaction. The format is biochemical, Citrus aurantifolia. On the procedure: The bilirubin-degrading assay as described in Example 2 was carried out using a lime enzyme preparation obtained as described in Example 1. Urate (at either 1.2 mM or 297 µM) and creatinine (88.4 and 176.8 µM) in a serum-based matrix had no effect on either the rate or extent of bilirubin degradation by the Citrus enzyme. […] Tests that are interfered severely by bilirubin include e.g. uric acid, cholesterol, glucose, triglycerides, to mention just a few (See for example, Spain and Wu, Clin. Chem. 32:518, 1986). Also, in practice, one will use much higher levels of the enzyme than those used here (5-10 µL/assay, representing about 0.1-0.2 mg protein). In such cases, the effects on initial rates will most likely be overcome or reduced to well within tolerable limits.

Test [4] concerns orange enzyme preparation. Put plainly: Effect of common blood components on the orange enzyme reaction. The format is biochemical, Citrus sinensis. On the procedure: The bilirubin-degrading assay as described under (A) was carried out using an orange enzyme preparation obtained as described in Example 1. […] It is to be noted that the amount of enzyme used for removing interferences can be increased, if desired, to speed up the process. […]

As to `Nc1ncnc2c1ncn2[C@@H]1O[C@H](COP(=O)(O)OP(=O)(O)O)[C@@H](O)[C@H]1O` [ADP], in test [1], the “effect on the enzyme in the normal bilirubin-degrading assay” value (shortened to “effect on the enzyme”) is listed as “no demonstrable effect”.
The same measure, in the same setting: the same measure for `Nc1ncnc2c1ncn2[C@@H]1O[C@H](COP(=O)(O)O)[C@@H](O)[C@H]1O` [AMP]: “no demonstrable effect”.
As for `Nc1ncnc2c1ncn2[C@@H]1O[C@H](COP(=O)(O)OP(=O)(O)OP(=O)(O)O)[C@@H](O)[C@H]1O` [ATP], in test [1], the “effect on the enzyme” value was “no demonstrable effect”. The activity inhibited in test [2] is recorded as approximately 50%.
Consider `NC(=O)C1=CN([C@@H]2O[C@H](COP(=O)(O)OP(=O)(O)OC[C@H]3O[C@@H](n4cnc5c(N)ncnc54)[C@H](O)[C@@H]3O)[C@@H](O)[C@H]2O)C=CC1` [NADH], for which the “effect on the enzyme” value in test [1] was “no demonstrable effect”.
Same read-out and setting: the entry for `NC(=O)c1ccc[n+]([C@@H]2O[C@H](COP(=O)([O-])OP(=O)(O)OC[C@H]3O[C@@H](n4cnc5c(N)ncnc54)[C@H](O)[C@@H]3O)[C@@H](O)[C@H]2O)c1` [NAD] is “no demonstrable effect”.
Turning to `Oc1nc(O)c2nc(O)[nH]c2n1` [Urate], the “effect on the rate or extent of bilirubin degradation” value in test [3] (at either 1.2 mM or 297 µM in a serum-based matrix) is recorded as “no effect”.
`CC(C)CCC[C@@H](C)[C@H]1CC[C@H]2[C@@H]3CC=C4C[C@@H](O)CC[C@]4(C)[C@H]3CC[C@]12C` [cholesterol]: in test [3] (30-40 min. incubation, serum-like matrix), the “effect on reaction extent” value is listed as “not significantly affected”. For the same compound, the “slow down of the initial rate of the enzymic reaction on unconjugated bilirubin” value in test [3] (elevated levels (cholesterol e.g. 11 mM or 400 mg/dL)) is on record as 10-20%. Further, in test [4] (elevated cholesterol), the “overall yield of the enzymic reaction, of the control value” is 90-95%. Besides, the initial rate retarded in test [4] (elevated levels, for example at 10mM) is 10-20%.
Take `NC(N)=O` [urea]: the “effect on the reaction of the orange enzyme” value in test [4] (water-soluble serum analytes) was “largely unaffected”.

The values are drawn from patent EP0320095A2, “Bilirubin degrading enzymes” (HEALTH & RESEARCH SERVICES INC., priority 1987, dated 1989).
